Data taken from paper PMC4627284, “High-throughput simultaneous screen and counterscreen identifies homoharringtonine as synthetic lethal with von Hippel-Lindau loss in renal cell carcinoma” (Oncotarget, 2015).

Assays:
[1] = test system: VHL-deficient 786-O cells; test: High-throughput simultaneous screen and counterscreen, 1:1 mix of EV^GFP and VHL^mCh 786-O cells, fluorescence imaging; assay type: cell-based, human; details: library at 5 μM, 48 hours, in the presence of 2 nM rapamycin
Description: To identify small molecule compounds synthetic lethal with VHL, we carried out an unbiased cell-based screen of a chemical library of ~12,800 compounds using 786-O cells, an extensively studied cell line derived from a VHL-deficient primary human ccRCC [26]. 786-O cells were stably transfected with either an empty vector (EV) control or reconstituted with an HA-tagged VHL cDNA. […] To distinguish between the two otherwise isogenic cell lines, we transduced the VHL-deficient 786-O cells with a histone H2B-GFP reporter and the VHL-reconstituted cells with an H2B-mCherry reporter. The histone proteins drive the fluorochrome to nuclei facilitating cell identification and segmentation algorithms (Figure 1A and 1B). […]
Figure 1 Screening strategy to identify compounds that are synthetic lethal with VHL A. Schematic diagram of a ~12,800 chemical library synthetic lethal screen. […] Fluorescence imaging (using the BD Pathway 855 imager) was used to identify compounds preferentially depleting VHL-deficient/GFP-positive cells after cells were segmented. B. Left panel: Representative image of fluorescence signal from Hoescht-labeled 786-O cells. Right panel: overlay of GFP fluorescence signal (green; from 786-O EV^GFP cells) and mCherry fluorescence nuclear signal (red; VHL^mCh cells). […] Toxicity was determined as ≤100 VHL^mCh cells per field. […]

[2] = test system: VHL-deficient 786-O cells; test: Cell death by trypan blue exclusion assay; assay type: cell-based, human; details: 36 hours
Method: (§1) Figure 2 Homoharringtonine (HHT) preferentially induces cell death in VHL-deficient 786-O cells A. 786-O cells with VHL mutation (green) or with VHL-reconstituted (red) were treated with different concentrations of HHT (0, 25, 50, or 100 nM) for 0, 6, 12, 24, 36, or 48 hours, and cell death was measured by trypan blue exclusion assay (n = 3 for each concentration and time point; *p < 0.05, **p < 0.001, ***p < 0.0001 between 786-O EV cells and 786-O with VHL reconstituted at the same concentration and time point). B. Western blot analysis of 786-O EV^GFP (EV) or VHL^mCh (VHL) cells treated with 100 nM HHT for 0, 3, 6, 12, or 24 hours. Blots were probed for Bcl-xL and Caspase 9, and α-Tubulin as loading control. Arrow indicates the cleaved Caspase 9 product.

[3] = test system: VHL-reconstituted 786-O cells; test: Cell death by trypan blue exclusion assay; assay type: cell-based, human; details: 36 hours
Method: as §1

XP26 tumorgraft line = test: ccRCC tumorgraft model, line XP26; assay type: in vivo, NOD/SCID mice; details: 0.7 mg/kg by gavage twice daily
Method: We selected 6 independently-derived ccRCC tumorgraft lines that were confirmed to have VHL mutation. The mice (3-5 mice per tumorgraft line) were treated with either HHT (0.7 mg/kg), vehicle (as a negative control), or rapamycin (0.5 mg/kg; as a positive control). In total, 65 tumorgraft bearing mice were evaluated for these experiments in time courses lasting ~28 days, with tumor growth measured every 3 or 4 days.
Figure 3 HHT inhibits tumor growth in a ccRCC tumorgraft model A-F, Tumorgraft lines were treated with vehicle control, HHT (0.7 mg/kg), rapamycin (0.5 mg/kg), (or the combination, where indicated) and tumor growth was measured on the indicated days. Day 0 represents the first day of treatment.
Tumorgrafts were generated and propagated as described previously, with tumor samples implanted subcutaneously into the flank of the mouse for drug trials. Briefly, 4- to 8-week-old NOD/SCID mice were anesthetized with isoflurane and implanted subcutaneously with 64 mm^3 tumor fragments (cohorts 2-20). Once tumors reached an average of at least ~250 mm^3, drug treatment was begun. […] Tumor size (volume) was measured twice weekly and was obtained by multiplying tumor length, width, and depth using calipers. To assess toxicity, mouse weight was monitored once weekly.

[4] = Toxicity in tumorgraft-bearing mice (mouse weight, signs); assay type: in vivo; details: 0.7 mg/kg by gavage twice daily, XP26 and XP144 cohorts
Description: C. and D. Average weight of XP26 and XP144 cohort mice in grams (g) taken at the indicated days prior to and over the course of the indicated drug treatment. Day 0 represents the first day of treatment.
Tumorgrafts were generated and propagated as described previously, with tumor samples implanted subcutaneously into the flank of the mouse for drug trials. Briefly, 4- to 8-week-old NOD/SCID mice were anesthetized with isoflurane and implanted subcutaneously with 64 mm^3 tumor fragments (cohorts 2-20). Once tumors reached an average of at least ~250 mm^3, drug treatment was begun. The mice were treated with vehicle, 0.7 mg/kg homoharringtonine (HHT) via gavage twice daily, or 0.5 mg/kg rapamycin given by IP injection once every 48 hours. Tumor size (volume) was measured twice weekly and was obtained by multiplying tumor length, width, and depth using calipers. To assess toxicity, mouse weight was monitored once weekly.

[5] = cited from earlier work
advanced ccRCC = test system: advanced ccRCC; set-up: method as in PMID 9157078; details: 14 patients with advanced ccRCC, 1996; cited from earlier work

COC(=O)C[C@](O)(CCCC(C)(C)O)C(=O)O[C@@H]1C(OC)=C[C@]23CCCN2CCc2cc4c(cc2[C@H]13)OCO4 [HHT, homoharringtonine]
synthetic lethality with VHL in the screen [1]: synthetic lethal compound effective against VHL-deficient ccRCC cells | VHL-deficient cells killed ([2]; 50 nM): 30-40% | dead VHL-deficient cells ([2]; 100 nM): 50-60% | VHL-reconstituted cells dead ([3]; 50 nM): < 10% | dead VHL-reconstituted cells ([3]; 100 nM): less than 25% | tumor weight smaller than vehicle-treated (XP26 tumorgraft line): 56% | tumor growth inhibition (tumor volume) vs vehicle (XP26 tumorgraft line; ~28 days): 63.7% | body weight of treated mice [4]: maintained similar body weight compared to controls | half-life in humans ([5]; dosed subcutaneously): 7 h | plasma concentration reached in patients ([5]; treatment of CML): ~ 50 nM | outcome of phase II trial (advanced ccRCC): halted due to toxicity
